For 1 molecule, Activity and Inhibition results are on record in ChEMBL document CHEMBL1142910, “Enzymatic and cellular study of a serotonin N-acetyltransferase phosphopantetheine-based prodrug” (2007).

Assay [1] has as its target Serotonin N-acetyltransferase (Rattus norvegicus) (UniProt Q64666). Nature of the assay: Inhibition of norepinephrine-stimulated AANAT activity assessed per 10^5 cells in rat pinealocytes at 50 uM. The class given is cell-based.
The nature of assay [2]: Inhibition of norepinephrine-stimulated melatonin production assessed per 10^5 cells in rat pinealocytes at 50 uM by radioimmunoassay. In kind it is functional.
For assay [3], the target named is Serotonin N-acetyltransferase (Rattus norvegicus) (UniProt Q64666). Briefly: Inhibition of norepinephrine-stimulated AANAT activity assessed per 10^5 cells in rat pinealocytes at 10 uM. In kind it is cell-based.
For assay [4] the target is unchanged. Nature of the assay: Activity of AANAT assessed as conversion of bis-pivaloyloxymethylene-tryptamine-phosphopantetheine to tryptamine phosphopantetheine in rat pinealocytes at […]. The class given is cell-based. The settings on record: TDE = time-dependent effect.
Assay [5] is described as follows: Inhibition of norepinephrine-stimulated melatonin production assessed per 10^5 cells in rat pinealocytes at 10 uM by radioimmunoassay. The class given is functional.
The target in assay [6] is Serotonin N-acetyltransferase (Rattus norvegicus) (UniProt Q64666). Nature of the assay: Activity of AANAT assessed as conversion of bis-pivaloyloxymethylene-tryptamine-phosphopantetheine to tryptamine phosphopantetheine in rat pinealocytes after 60 mins. In kind it is cell-based.

Sequence of Serotonin N-acetyltransferase (Rattus norvegicus) (Q64666 whole entry): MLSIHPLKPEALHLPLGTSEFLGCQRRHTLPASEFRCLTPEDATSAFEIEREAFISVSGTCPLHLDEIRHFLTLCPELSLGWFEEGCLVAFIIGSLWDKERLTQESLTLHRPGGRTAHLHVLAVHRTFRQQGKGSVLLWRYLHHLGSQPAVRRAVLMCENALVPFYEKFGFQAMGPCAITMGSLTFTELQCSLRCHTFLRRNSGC

As to `CC(C)(C)C(=O)OCOP(=O)(OCOC(=O)C(C)(C)C)OCC(C)(C)[C@@H](O)C(=O)NCCC(=O)NCCSCC(=O)NCCc1c[nH]c2ccccc12`, the Activity in assay [1] is 1.6 nmol/h; in assay [3] it was 2.2 nmol/h; in assay [4], “tde”; in assay [6], 40%. In addition, the figures for the Inhibition in assay [2] and in assay [5] were 5.7 pmol and 9 pmol, respectively.
